The text below walks through data of patent US20260317319A1, “NOVEL ERGOLINES AND METHODS OF TREATING MOOD DISORDERS” (Gilgamesh Pharma Inc., priority 2023, published 2026).

Structures are written as SMILES.

The target of data set [1] is 5-HT2A receptor (Homo sapiens, UniProt P28223). Description: biochemical. The class given is binding. On the set-up: expressed in transfected cells; host or cells: HEK293, stably transfected. The note with it: [3H]ketanserin 1 nM; HEK293 stable cell line; 1 h, 25 °C. The procedure:
Affinity of the test compounds for the 5-HT2A receptor was determined in radioligand binding experiments with [^3H]ketanserin by WuXi AppTec (Hong Kong) Limited, using methods adapted from the literature and under conditions described in Table 1.

Data set [2] is described as follows: in vitro. The class given is in vitro ADME, mouse. The note with it: MLM (male CD-1) 0.50 mg/mL, NADPH 1 mM, 1 μM compound, pH 7.4, 37° C., 60 min. The text has this:
MLM Stability Pooled MLM from male CD-1 mice (BIOIVT M00501) were used.

Data set [3] in a line: in vitro. The class given is in vitro ADME, rat. The note with it: RLM (male Sprague-Dawley) 0.50 mg/mL, NADPH 1 mM, 1 μM compound, pH 7.4, 37° C., 60 min. The source says:
RLM Stability Pooled RLM from male Sprague-Dawley rats (Xenotech R1000) were used.

Data set [4] can be described thus: in vitro. The class given is in vitro ADME, human. The note with it: HLM 0.50 mg/mL, NADPH 1 mM, 1 μM compound, pH 7.4, 37° C., 60 min.

Sequence of 5-HT2A receptor (P28223 whole entry): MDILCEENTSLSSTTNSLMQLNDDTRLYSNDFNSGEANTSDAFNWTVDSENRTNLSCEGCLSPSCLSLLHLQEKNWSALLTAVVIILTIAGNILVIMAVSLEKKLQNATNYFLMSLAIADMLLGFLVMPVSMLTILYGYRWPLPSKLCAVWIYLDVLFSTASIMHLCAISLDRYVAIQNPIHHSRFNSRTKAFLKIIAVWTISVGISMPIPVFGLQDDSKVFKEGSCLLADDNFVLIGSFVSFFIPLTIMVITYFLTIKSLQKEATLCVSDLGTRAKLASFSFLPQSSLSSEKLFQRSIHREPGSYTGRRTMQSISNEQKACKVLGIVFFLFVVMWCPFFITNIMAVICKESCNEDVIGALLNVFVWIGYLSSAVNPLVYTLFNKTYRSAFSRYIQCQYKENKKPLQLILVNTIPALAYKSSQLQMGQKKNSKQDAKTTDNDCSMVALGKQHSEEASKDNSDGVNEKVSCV

On to `CCN(C)C(=O)[C@H]1C=C2c3cccc4[nH]cc(c34)C[C@H]2N(CC2CCCC2)C1` [Compound 103a, (6aR,9S)-7-(cyclopentylmethyl)-N-ethyl-N-methyl-4,6,6a,7,8,9-hexahydroindolo[4,3-fg]quinoline-9-carboxamide], for which affinity in data set [1] was put at a Ki of 0.511 µM. The same measure, in the same setting: the result for `CCN(CC)C(=O)[C@H]1C=C2c3cccc4[nH]cc(c34)C[C@H]2N(Cc2ccc3ccccc3c2)C1` [Compound 100a, (6aR,9S)—N,N-diethyl-7-(naphthalen-2-ylmethyl)-4,6,6a,7,8,9-hexahydroindolo[4,3-fg]quinoline-9-carboxamide] reads more than 1.23 µM; that for `COc1cccc(CN2C[C@@H](C(=O)N3CCCC3)C=C3c4cccc5[nH]cc(c45)C[C@H]32)c1` [Compound 91a, ((6aR,9S)-7-(3-methoxybenzyl)-4,6,6a,7,8,9-hexahydroindolo[4,3-fg]quinolin-9-yl)(pyrrolidin-1-yl)methanone], more than 1.23 µM; that for `CCN(CC)C(=O)[C@H]1C=C2c3cccc4[nH]cc(c34)C[C@H]2N(Cc2ccccc2C)C1` [Compound 99a, (6aR,9S)—N,N-diethyl-7-(2-methylbenzyl)-4,6,6a,7,8,9-hexahydroindolo[4,3-fg]quinoline-9-carboxamide], 0.802 µM.

As to `CCCN(CC)C(=O)[C@H]1C=C2c3cccc4[nH]cc(c34)C[C@H]2N(Cc2cccc(OC)c2)C1` [Compound 93a, (6aR,9S)—N-ethyl-7-(3-methoxybenzyl)-N-propyl-4,6,6a,7,8,9-hexahydroindolo[4,3-fg]quinoline-9-carboxamide], the affinity in data set [1], expressed as Ki, was 0.23 µM. On the same count and under the same terms, with `C[C@H]1C[C@H](C)N1C(=O)[C@H]1C=C2c3cccc4[nH]cc(c34)C[C@H]2N(Cc2ccccc2)C1` [Compound 87a, ((6aR,9S)-7-benzyl-4,6,6a,7,8,9-hexahydroindolo[4,3-fg]quinolin-9-yl)((2S,4S)-2,4-dimethylazetidin-1-yl)methanone] the figure was 1.14 µM; with `[2H]C(c1cccc(OC)c1)N1C[C@H](C(=O)N(CC)CC)C=C2c3cccc4[nH]cc(c34)C[C@H]21` (stereo partly drawn) [Compound 96, (6aR,9R)—N,N-diethyl-7-((3-methoxyphenyl)methyl-d)-4,6,6a,7,8,9-hexahydroindolo[4,3-fg]quinoline-9-carboxamide], 0.00399 µM; with `CCN(CC)C(=O)[C@H]1C=C2c3cccc4[nH]cc(c34)C[C@H]2N(Cc2cccc3ccccc23)C1` [Compound 101a, (6aR,9S)—N,N-diethyl-7-(naphthalen-1-ylmethyl)-4,6,6a,7,8,9-hexahydroindolo[4,3-fg]quinoline-9-carboxamide], 0.75 µM. The same measure, in the same setting: the result for `CCN(CC)C(=O)[C@H]1C=C2c3cccc4[nH]cc(c34)C[C@H]2N(Cc2cccc(F)c2)C1` [Compound 52a, (6aR,9S)—N,N-diethyl-7-(3-fluorobenzyl)-4,6,6a,7,8,9-hexahydroindolo[4,3-fg]quinoline-9-carboxamide] reads more than 1.23 µM; that for `CC[C@@H](C)NC(=O)[C@H]1C=C2c3cccc4[nH]cc(c34)C[C@H]2N(Cc2ccccc2)C1` [Compound 95a, (6aR,9S)-7-benzyl-N—((R)-sec-butyl)-4,6,6a,7,8,9-hexahydroindolo[4,3-fg]quinoline-9-carboxamide], 0.123 µM. `[2H]C([2H])([2H])Oc1cccc(CN2C[C@H](C(=O)N(CC)CC)C=C3c4cccc5[nH]cc(c45)C[C@H]32)c1` [Compound 56, (6aR,9R)—N,N-diethyl-7-(3-(methoxy-d3)benzyl)-4,6,6,7,8,9-hexahydroindolo[4,3-fg]quinoline-9-carboxamide]: the “Intrinsic clearance (Clint)” value in data set [2] was 223.3 µL/min/mg; in data set [3], 224.5 µL/min/mg; in data set [4], 113.3 µL/min/mg. The “half-life (t1/2)” value in data set [2] came out at 6.2 min; in data set [3], 6.2 min; in data set [4], 12.2 min. With `CN1C[C@H](C(=O)N2CCCC2)C=C2c3cccc4[nH]cc(c34)C[C@H]21` [Int22], in data set [4], the “Intrinsic clearance (Clint)” value was less than 9.6 µL/min/mg and the “half-life (t1/2)” value is more than 145 min.

By Ki is commonly meant the dissociation constant of the complex between target and ligand, obtained from inhibition or displacement. Read a low Ki as a stronger hold on the target.
